In PubChem BioAssay AID270 (DTP/NCI, 2004):
Several values for one entry are separate records, joined by “and”; a condition that tells them apart may be missing. Equal values may be shown once. Inconclusive results are not listed.

Tested on: BDF1 mice, s.c. Lewis lung carcinoma, T/C %
Assay: NCI In Vivo Anticancer Drug Screen. Data for tumor model Lewis Lung Carcinoma (subcutaneous) in B6D2F1 (BDF1) mice
Procedure: The antitumor activity of compounds was measured in mice bearing transplantable tumors. Survival or tumor size were measured and the results are expressed as the measurement made in the treated group (T) divided by the measurement made in the vehicle treated control group (C). The tumor model used in this assay is Lewis Lung Carcinoma (subcutaneous) in B6D2F1 (BDF1) mice

[1] = endpoint: median survival time, dose: 0.5 mg/kg/injection, schedule: Q01DX009 (ip), vehicle: Klucel (hydroxypropylcellulose) (HPC), higher = longer survival
[2] = endpoint: median survival time, dose: 1.0 mg/kg/injection, schedule: Q01DX009 (ip), vehicle: Klucel (hydroxypropylcellulose) (HPC), higher = longer survival
[3] = endpoint: median survival time, dose: 4.0 mg/kg/injection, schedule: Q01DX009 (ip), vehicle: Klucel (hydroxypropylcellulose) (HPC), higher = longer survival

SMILES: O=NN(CCCl)C(=O)NC1CCC(=O)NC1=O (centres undefined)
- T/C [1]: 107 % of control and 110 % of control
- T/C [2]: 100 % of control and 105 % of control
- T/C (endpoint: median survival time, dose: 1.25 mg/kg/injection, schedule: Q01DX009 (ip), vehicle: other, higher = longer survival): 122 % of control
- T/C (endpoint: median survival time, dose: 2.0 mg/kg/injection, schedule: Q01DX009 (ip), vehicle: Klucel (hydroxypropylcellulose) (HPC), higher = longer survival): 101 % of control and 117 % of control
- T/C (endpoint: median survival time, dose: 2.0 mg/kg/injection, schedule: Q02DX009 (ip), vehicle: saline with Tween-80, higher = longer survival): 90 % of control
- T/C (endpoint: median survival time, dose: 3.0 mg/kg/injection, schedule: Q02DX009 (ip), vehicle: saline with Tween-80, higher = longer survival): 93 % of control
- T/C [3]: 182 % of control
- T/C (endpoint: median survival time, dose: 5.0 mg/kg/injection, schedule: Q01DX001 (ip), vehicle: gum acacia, higher = longer survival): 89 % of control
- T/C (endpoint: median survival time, dose: 5.0 mg/kg/injection, schedule: Q01DX001 (ip), vehicle: other, higher = longer survival): 120 % of control
- T/C (endpoint: median survival time, dose: 5.0 mg/kg/injection, schedule: Q01DX001 (ip), vehicle: saline, higher = longer survival): 96 % of control
- T/C (endpoint: median survival time, dose: 6.0 mg/kg/injection, schedule: Q04DX003 (ip), vehicle: saline with Tween-80, higher = longer survival): 93 % of control
- T/C (endpoint: median survival time, dose: 10.0 mg/kg/injection, schedule: Q01DX001 (ip), vehicle: other, higher = longer survival): 107 % of control and 124 % of control
- T/C (endpoint: median survival time, dose: 10.0 mg/kg/injection, schedule: Q01DX001 (ip), vehicle: saline with Tween-80, higher = longer survival): 111 % of control
- T/C (endpoint: median survival time, dose: 10.0 mg/kg/injection, schedule: Q01DX001 (ip), vehicle: saline, higher = longer survival): 101 % of control
- T/C (endpoint: median survival time, dose: 10.0 mg/kg/injection, schedule: Q04DX003 (ip), vehicle: saline with Tween-80, higher = longer survival): 120 % of control
- T/C (endpoint: median survival time, dose: 15.0 mg/kg/injection, schedule: Q01DX001 (ip), vehicle: saline with Tween-80, higher = longer survival): 108 % of control
- T/C (endpoint: median survival time, dose: 22.5 mg/kg/injection, schedule: Q01DX001 (ip), vehicle: saline with Tween-80, higher = longer survival): 208 % of control
- T/C (endpoint: median survival time, dose: 26.0 mg/kg/injection, schedule: Q01DX001 (ip), vehicle: gum acacia, higher = longer survival): 168 % of control
- T/C (endpoint: median survival time, dose: 40.0 mg/kg/injection, schedule: Q01DX001 (ip), vehicle: saline, higher = longer survival): 156 % of control
- T/C (endpoint: median tumor weight (est.), dose: 7.6 mg/kg/injection, schedule: Q01DX001 (ip), vehicle: gum acacia, higher = larger tumour): 93 % of control
- T/C (endpoint: median tumor weight (est.), dose: 15.0 mg/kg/injection, schedule: Q01DX001 (ip), vehicle: gum acacia, higher = larger tumour): 10 % of control

SMILES: O=C(Nc1ccc(C2=NCCCN2)cc1)c1ccc(C(=O)Nc2ccc(C3=NCCCN3)cc2)cc1
- T/C (endpoint: mean tumor weight, dose: 0.25 mg/kg/injection, schedule: Q01DX011 (ip), vehicle: other, higher = larger tumour): 73 % of control
- T/C (endpoint: mean tumor weight, dose: 0.5 mg/kg/injection, schedule: Q01DX011 (ip), vehicle: other, higher = larger tumour): 98 % of control
- T/C (endpoint: mean tumor weight, dose: 1.0 mg/kg/injection, schedule: Q01DX011 (ip), vehicle: other, higher = larger tumour): 85 % of control
- T/C (endpoint: mean tumor weight, dose: 2.0 mg/kg/injection, schedule: Q01DX011 (ip), vehicle: other, higher = larger tumour): 73 % of control
- T/C (endpoint: mean tumor weight, dose: 4.0 mg/kg/injection, schedule: Q01DX011 (ip), vehicle: other, higher = larger tumour): 7 % of control

SMILES: O=C(O)CCc1c[nH]c2ccc(N(CCCl)CCCl)cc12
- T/C (endpoint: mean tumor weight, dose: 0.7 mg/kg/injection, schedule: Q01DX011 (ip), vehicle: carboxymethylcellulose (CMC), higher = larger tumour): 74 % of control
- T/C (endpoint: mean tumor weight, dose: 1.5 mg/kg/injection, schedule: Q01DX011 (ip), vehicle: carboxymethylcellulose (CMC), higher = larger tumour): 79 % of control
- T/C (endpoint: mean tumor weight, dose: 3.0 mg/kg/injection, schedule: Q01DX011 (ip), vehicle: carboxymethylcellulose (CMC), higher = larger tumour): 51 % of control

SMILES: C[C@]12CCC(=O)C=C1CC[C@@H]1[C@@H]2[C@@H](O)C[C@@]2(C)[C@H]1CC[C@]2(O)C(=O)CO
- T/C (endpoint: median survival time, dose: 40.0 mg/kg/injection, schedule: Q02DX009 (ip), vehicle: Klucel (hydroxypropylcellulose) (HPC), higher = longer survival): 98 % of control
- T/C (endpoint: median survival time, dose: 80.0 mg/kg/injection, schedule: Q02DX009 (ip), vehicle: Klucel (hydroxypropylcellulose) (HPC), higher = longer survival): 96 % of control
- T/C (endpoint: median survival time, dose: 160.0 mg/kg/injection, schedule: Q02DX009 (ip), vehicle: Klucel (hydroxypropylcellulose) (HPC), higher = longer survival): 97 % of control
- T/C (endpoint: median survival time, dose: 640.0 mg/kg/injection, schedule: Q02DX009 (ip), vehicle: Klucel (hydroxypropylcellulose) (HPC), higher = longer survival): 88 % of control

SMILES: O=C(N/N=C/c1ccc(O)cc1O)c1cccnc1
- T/C (endpoint: median survival time, dose: 6.25 mg/kg/injection, schedule: Q01DX009 (ip), vehicle: olive oil, sesame oil, peanut oil, higher = longer survival): 91 % of control
- T/C (endpoint: median survival time, dose: 25.0 mg/kg/injection, schedule: Q01DX009 (ip), vehicle: olive oil, sesame oil, peanut oil, higher = longer survival): 101 % of control

SMILES: CCCCOB(/C=C/Sc1ccccc1)OCCCC
- T/C (endpoint: median survival time, dose: 50.0 mg/kg/injection, schedule: Q01DX009 (ip), vehicle: saline with Tween-80, higher = longer survival): 95 % of control

SMILES: COC1C(OC(=O)/C=C/C=C/C=C/C=C/C(=O)O)CCC2(CO2)C1C1(C)OC1CC=C(C)C (centres undefined)
- T/C (endpoint: mean tumor weight, dose: 25.0 mg/kg/injection, schedule: Q01DX011 (ip), vehicle: saline, higher = larger tumour): 82 % of control
- T/C (endpoint: mean tumor weight, dose: 50.0 mg/kg/injection, schedule: Q01DX011 (ip), vehicle: saline, higher = larger tumour): 38 % of control and 49 % of control
- T/C (endpoint: mean tumor weight, dose: 100.0 mg/kg/injection, schedule: Q01DX011 (ip), vehicle: saline, higher = larger tumour): 54 % of control
- T/C (endpoint: mean tumor weight, dose: 200.0 mg/kg/injection, schedule: Q01DX011 (ip), vehicle: saline, higher = larger tumour): 23 % of control

SMILES: CO[C@H]1C[C@H](O[C@H]2CC[C@]3(C=O)[C@H]4CC[C@]5(C)[C@@H](C6=CC(=O)OC6)CC[C@]5(O)[C@@H]4CC[C@]3(O)C2)O[C@H](C)[C@H]1O
- T/C (endpoint: mean tumor weight, dose: 2.6 mg/kg/injection, schedule: Q01DX011 (sc), vehicle: steriod suspending solution, higher = larger tumour): 59 % of control
- T/C (endpoint: mean tumor weight, dose: 4.0 mg/kg/injection, schedule: Q01DX011 (sc), vehicle: steriod suspending solution, higher = larger tumour): 78 % of control

SMILES: COc1cc2nccc3c4ccccc4n(c1=O)c23
- T/C (endpoint: median survival time, dose: 50.0 mg/kg/injection, schedule: Q01DX009 (ip), vehicle: Klucel (hydroxypropylcellulose) (HPC), higher = longer survival): 114 % of control
- T/C (endpoint: median survival time, dose: 100.0 mg/kg/injection, schedule: Q01DX009 (ip), vehicle: Klucel (hydroxypropylcellulose) (HPC), higher = longer survival): 110 % of control
- T/C (endpoint: median survival time, dose: 200.0 mg/kg/injection, schedule: Q01DX009 (ip), vehicle: Klucel (hydroxypropylcellulose) (HPC), higher = longer survival): 120 % of control

SMILES: Cc1ccc(NC(=O)c2ccccc2)cc1[As]=[As]c1cc(NC(=O)c2ccccc2)ccc1C (centres undefined)
- T/C (endpoint: median survival time, dose: 0.63 mg/kg/injection, schedule: Q01DX009 (ip), vehicle: Klucel (hydroxypropylcellulose) (HPC), higher = longer survival): 100 % of control
- T/C (endpoint: median survival time, dose: 1.25 mg/kg/injection, schedule: Q01DX009 (ip), vehicle: Klucel (hydroxypropylcellulose) (HPC), higher = longer survival): 100 % of control

SMILES: O=[N+]([O-])c1ccc(/C=N\Nc2ccc([N+](=O)[O-])cn2)cc1
- T/C (endpoint: median survival time, dose: 12.5 mg/kg/injection, schedule: Q01DX009 (ip), vehicle: Klucel (hydroxypropylcellulose) (HPC), higher = longer survival): 88 % of control
- T/C (endpoint: median survival time, dose: 25.0 mg/kg/injection, schedule: Q01DX009 (ip), vehicle: Klucel (hydroxypropylcellulose) (HPC), higher = longer survival): 104 % of control

SMILES: CN(Cc1cnc2nc(N)nc(N)c2n1)c1ccc(C(=O)N[C@@H](CCC(=O)O)C(=O)O)cc1
- T/C (endpoint: mean tumor weight, dose: 0.5 mg/kg/injection, schedule: Q01DX011 (ip), vehicle: alkali diluted with saline, higher = larger tumour): 91 % of control
- T/C (endpoint: mean tumor weight, dose: 0.5 mg/kg/injection, schedule: Q01DX011 (ip), vehicle: carboxymethylcellulose (CMC), higher = larger tumour): 97 % of control
- T/C (endpoint: mean tumor weight, dose: 0.75 mg/kg/injection, schedule: Q01DX011 (ip), vehicle: alkali diluted with saline, higher = larger tumour): 111 % of control
- T/C (endpoint: mean tumor weight, dose: 1.0 mg/kg/injection, schedule: Q01DX011 (ip), vehicle: alkali diluted with saline, higher = larger tumour): 83 % of control
- T/C (endpoint: mean tumor weight, dose: 1.0 mg/kg/injection, schedule: Q01DX011 (ip), vehicle: carboxymethylcellulose (CMC), higher = larger tumour): 91 % of control
- T/C (endpoint: mean tumor weight, dose: 1.5 mg/kg/injection, schedule: Q01DX011 (ip), vehicle: alkali diluted with saline, higher = larger tumour): 93 % of control
- T/C (endpoint: mean tumor weight, dose: 2.0 mg/kg/injection, schedule: Q01DX011 (ip), vehicle: alkali diluted with saline, higher = larger tumour): 72 % of control
- T/C (endpoint: mean tumor weight, dose: 2.0 mg/kg/injection, schedule: Q01DX011 (ip), vehicle: carboxymethylcellulose (CMC), higher = larger tumour): 90 % of control
- T/C (endpoint: mean tumor weight, dose: 4.0 mg/kg/injection, schedule: Q01DX011 (ip), vehicle: carboxymethylcellulose (CMC), higher = larger tumour): 25 % of control
- T/C [1]: 107 % of control
- T/C (endpoint: median survival time, dose: 0.5 mg/kg/injection, schedule: Q01DX009 (ip), vehicle: saline with Tween-80, higher = longer survival): 89 % of control and 100 % of control
- T/C [2]: 112 % of control
- T/C (endpoint: median survival time, dose: 1.0 mg/kg/injection, schedule: Q01DX009 (ip), vehicle: saline with Tween-80, higher = longer survival): 93 % of control
- T/C (endpoint: median survival time, dose: 1.0 mg/kg/injection, schedule: Q01DX009 (ip), vehicle: saline, higher = longer survival): 100 % of control
- T/C (endpoint: median survival time, dose: 2.0 mg/kg/injection, schedule: Q01DX009 (ip), vehicle: saline, higher = longer survival): 102 % of control
- T/C [3]: 121 % of control
- T/C (endpoint: median tumor weight (est.), dose: 0.5 mg/kg/injection, schedule: Q01DX009 (ip), vehicle: saline with Tween-80, higher = larger tumour): 95 % of control
- T/C (endpoint: median tumor weight (est.), dose: 1.0 mg/kg/injection, schedule: Q01DX009 (ip), vehicle: saline with Tween-80, higher = larger tumour): 86 % of control
- T/C (endpoint: median tumor weight (est.), dose: 1.4 mg/kg/injection, schedule: Q01DX011 (ip), vehicle: sodium bicarbonate, higher = larger tumour): 99 % of control
- T/C (endpoint: median tumor weight (est.), dose: 2.1 mg/kg/injection, schedule: Q01DX011 (ip), vehicle: sodium bicarbonate, higher = larger tumour): 74 % of control
